# Source: patent publication US11638737B2, “Food compositions and pharmaceutical compositions containing Filipendula glaberrima extract for lowering blood cholesterol levels and for ameliorating atherosclerosis” (KOREA INSTITUTE OF SCIENCE AND TECHNOLOGY, priority 2019, dated 2023)
# Assays:
# [1] = DPPH radical scavenging effect; conditions: samples marked (μM); read-out: SC50 DPPH radical
# Source text: Data are expressed as an average of measurements conducted in triplicate.
# [2] = Xanthine/xanthine oxidase-induced superoxide anion scavenging effect; type: biochemical; conditions: samples marked (μM); read-out: SC50 Superoxide anion radical (O2−)
# Description: Specifically, 0.1 mM xanthine, 0.1 mM EDTA, 50 μg/ml of bovine serum albumin (BSA), […] nitroblue tetrazolium (NBT), a 40 mM Na2CO3 solution, a test sample solution diluted at each concentration and a solution with a final volume of 200 μl containing 1.4×10^−3 unit XOD were mixed and reacted at 25° C. for 20 minutes.
# HMG-CoA reductase = target: T1, HMG-CoA reductase (Homo sapiens, UniProt P04035); assay: HMG-CoA reductase inhibitory effect (modified Perchellet's assay, absorbance at 340 nm); type: biochemical; conditions: mean ± standard error; values without (μM) mark
# T1 construct: purchased Sigma-Aldrich (St. Louis, Mo.)
# T1 sequence (P04035 426-888 limits assumed): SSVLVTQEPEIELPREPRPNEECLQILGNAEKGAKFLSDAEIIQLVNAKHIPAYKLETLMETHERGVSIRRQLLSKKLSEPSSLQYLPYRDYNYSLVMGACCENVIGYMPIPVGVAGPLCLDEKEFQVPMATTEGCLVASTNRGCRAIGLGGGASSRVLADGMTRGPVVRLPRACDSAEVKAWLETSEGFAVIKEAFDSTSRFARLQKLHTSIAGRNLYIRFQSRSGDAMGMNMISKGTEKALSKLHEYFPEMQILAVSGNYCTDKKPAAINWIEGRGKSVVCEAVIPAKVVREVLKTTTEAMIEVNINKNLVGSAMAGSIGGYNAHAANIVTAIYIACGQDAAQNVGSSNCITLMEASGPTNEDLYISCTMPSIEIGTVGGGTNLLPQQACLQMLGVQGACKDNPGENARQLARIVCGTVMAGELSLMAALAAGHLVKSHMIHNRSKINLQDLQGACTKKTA
# Description: Transparent 96-well plates were purchased from SPL Lifesciences (Pocheon). A VERSA Max™ microplate reader from Molecular Devices was used.
# The sample for detection was dissolved in DMSO before use.
# The activity of HMG-CoA reductase was compared and analyzed by recording the absorbance at 340 nm at 37° C. for 10 minutes using a VERSA Max™ microplate reader. […] The experiment was repeated three times.
# [3] = system: lipid peroxide formation in liver homogenate; assay: Lipid peroxide production inhibitory effect (LPO) in rat liver homogenate; type: biochemical, Sprague-Dawley rats; conditions: for IC50: samples marked (μM)
# Description: The lipid peroxide production inhibitory effect (LPO) of the extract and the isolated compounds were tested. Lipid peroxide is a substance produced by peroxidation of lipids through various oxidation reactions. Reactive oxygen species, free radicals and the like oxidize phospholipids of cell membranes containing great amounts of unsaturated fatty acids, producing lipid peroxides in the cell membranes. When the lipid peroxides are accumulated in the cell membranes, the fluidity and functionality of the cell membrane are deteriorated, resulting in local disorders in tissues such as inhibition of cell functions and changes in cell structures.
# Therefore, the effects of inhibiting lipid peroxide production by the Filipendula glaberrima leaf and stem extracts and the isolated compounds were measured as follows. The animals used in the experiment were male Sprague-Dawley rats, and only water was supplied for 24 hours before the experiment. […] The experimental animals were subjected to respiratory anesthesia with isoflurane, and dissected and a 0.15 M ice-cold KCl solution was perfused through the liver portal vein to remove blood from the liver and extract the liver. […] 50 mM Tris-HCl buffer (pH 7.5) was added to 300 μl of a liver homogenate (11 mg protein/ml), 10 μM FeSO4, 10 μl of a test drug and 0.4 mM ascorbic acid to adjust the total volume to 1 ml, and then the resulting mixture was incubated at 37° C. for 30 minutes.
Structure (SMILES),IC50 [1],IC50 [2],IC50 (HMG-CoA reductase),IC50 [3],"IC50 LPO ([3]; rat liver homogenate, FeSO4/ascorbic acid, TBA, 535 nm)"
"O=C1O[C@H]([C@@H](O)CO)C(O)=C1O [Vit. C, ascorbic acid]",29.3 ± 2.49 µM,> 50 µM,,,
Cc1c(C)c2c(c(C)c1O)CCC(C)(C(=O)O)O2 (centres unmarked) [Trolox],47.5 ± 0.41 µM,> 50 µM,,> 50 µM,
Oc1ccc(C=Cc2cc(O)cc(O)c2)cc1 [Resveratrol],,,,35.64 ± 0.01 µM,
O=c1c(O)c(-c2ccc(O)c(O)c2)oc2cc(O)cc(O)c12 [Quercetin],19 ± 2.25 µM,> 50 µM,,29.6 ± 1.32 µM,29.57 ± 1.32 µg/mL

# Further lines, results first:
IC50 [1],IC50 [2],IC50 (HMG-CoA reductase),IC50 [3],"IC50 LPO ([3]; rat liver homogenate, FeSO4/ascorbic acid, TBA, 535 nm)",Structure (SMILES)
3.62 ± 0.57 µM,41.1 ± 2.24 µM,1.46 ± 0.22 µM,7.99 ± 0.05 µM,,COC(=O)c1cc(O)c(O)c(O)c1Oc1cc2c(c(O)c1O)-c1c(cc(O)c(O)c1O)C(=O)O[C@@H]1C(COC2=O)OC(O)C(OC(=O)c2cc(O)c(O)c(O)c2)C1OC(=O)c1cc(O)c(O)c(O)c1 (some centres unmarked) [Compound 2]
47.88 ± 0.01 µM,,175 ± 2.2 µM,89 ± 3.69 µM,,C[C@@H]1CC[C@]2(C(=O)O[C@@H]3OC(COC(=O)c4cc(O)c(O)c(O)c4)[C@@H](O)[C@H](O)C3O)CC[C@]3(C)C(=CC[C@@H]4[C@@]5(C)C[C@@H](O)[C@H](O)C(C)(C)[C@@H]5CC[C@]43C)[C@@H]2[C@]1(C)O (some centres unmarked) [Compound 1]
